Test results published in ChEMBL document CHEMBL4364276, “Discovery of 4-phenyl-2H-benzo[b][1,4]oxazin-3(4H)-one derivatives as potent and orally active PI3K/mTOR dual inhibitors” (Eur J Med Chem, 2019).

Tests used:
A-375 = assay: Antiproliferative activity against human A375 cells assessed as reduction in cell viability incubated for 72 hrs by MTT assay; type: functional, cell-based; details: A-375, 72 h
MCF7 = assay: cells; details: Homo sapiens, MCF7, 72 h
A549 = assay: cells; details: Homo sapiens, A549, 72 h
[1] = molecular target: Serine/threonine-protein kinase mTOR (Homo sapiens, UniProt P42345); assay: Inhibition of recombinant human N-terminal FLAG-tagged mTOR (1362 to end residues) using Ulight-4E-BP1 as substrate incubated for 30 mins by fluorescence assay
HCT-116 = assay: Antiproliferative activity against human HCT116 cells assessed as reduction in cell viability incubated for 72 hrs by MTT assay; type: functional, cell-based; details: HCT-116, 72 h
[2] = molecular target: Phosphatidylinositol 4,5-bisphosphate 3-kinase catalytic subunit alpha isoform (Homo sapiens, UniProt P42336); assay: Inhibition of recombinant human full length N-terminal GST-tagged PI3Kalpha (1 to 1068 residues)/PIK3R1 (1 to 724 residues) expressed in baculovirus expression system using PIP2 as substrate incubated for 1 hr by ADP-Glo assay
Phosphatidylinositol 4,5-bisphosphate 3-kinase catalytic subunit alpha isoform, sequence (P42336 whole entry, looked up, the tested form may be a part, canonical isoform): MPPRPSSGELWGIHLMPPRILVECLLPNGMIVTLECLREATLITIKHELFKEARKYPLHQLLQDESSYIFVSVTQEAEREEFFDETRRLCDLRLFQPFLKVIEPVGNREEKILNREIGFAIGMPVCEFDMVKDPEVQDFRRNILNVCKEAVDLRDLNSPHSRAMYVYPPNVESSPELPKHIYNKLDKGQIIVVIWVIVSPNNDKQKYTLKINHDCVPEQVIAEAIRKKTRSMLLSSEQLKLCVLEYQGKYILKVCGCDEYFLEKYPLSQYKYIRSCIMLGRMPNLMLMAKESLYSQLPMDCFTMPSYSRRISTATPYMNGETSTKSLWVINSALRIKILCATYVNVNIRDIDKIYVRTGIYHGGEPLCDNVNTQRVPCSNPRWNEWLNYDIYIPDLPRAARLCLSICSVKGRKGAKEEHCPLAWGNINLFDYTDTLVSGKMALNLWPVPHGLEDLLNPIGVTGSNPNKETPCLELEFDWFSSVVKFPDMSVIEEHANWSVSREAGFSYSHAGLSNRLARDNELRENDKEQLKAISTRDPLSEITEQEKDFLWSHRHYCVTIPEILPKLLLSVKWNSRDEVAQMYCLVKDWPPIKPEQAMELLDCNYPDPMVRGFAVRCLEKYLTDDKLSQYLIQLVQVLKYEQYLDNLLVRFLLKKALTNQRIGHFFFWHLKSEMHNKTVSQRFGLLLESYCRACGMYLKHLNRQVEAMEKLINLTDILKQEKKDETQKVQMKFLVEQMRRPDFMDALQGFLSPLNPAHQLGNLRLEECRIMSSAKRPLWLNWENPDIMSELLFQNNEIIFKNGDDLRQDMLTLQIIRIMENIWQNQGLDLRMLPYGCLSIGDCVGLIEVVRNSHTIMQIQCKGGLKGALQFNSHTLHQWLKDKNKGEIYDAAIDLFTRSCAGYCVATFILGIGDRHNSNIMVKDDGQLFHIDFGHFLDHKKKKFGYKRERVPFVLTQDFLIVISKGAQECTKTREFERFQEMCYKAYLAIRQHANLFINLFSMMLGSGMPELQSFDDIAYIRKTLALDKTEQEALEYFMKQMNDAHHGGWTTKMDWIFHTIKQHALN

HeLa = assay: Antiproliferative activity against human HeLa cells assessed as reduction in cell viability incubated for 72 hrs by MTT assay; type: functional, cell-based
HepG2 = assay: cells; details: Homo sapiens, HepG2, 72 h
[3] = molecular target: PI3-kinase p110-delta/p85-alpha (Homo sapiens, UniProt O00329); assay: Inhibition of recombinant human full length N-terminal GST-tagged PI3Kdelta (1 to 1044 residues)/PIK3R1 (1 to 724 residues) expressed in baculovirus expression system using PIP2 as substrate incubated for 2 hrs by ADP-Glo assay
PI3-kinase p110-delta/p85-alpha, sequence (P27986 whole entry, the tested form may be a part): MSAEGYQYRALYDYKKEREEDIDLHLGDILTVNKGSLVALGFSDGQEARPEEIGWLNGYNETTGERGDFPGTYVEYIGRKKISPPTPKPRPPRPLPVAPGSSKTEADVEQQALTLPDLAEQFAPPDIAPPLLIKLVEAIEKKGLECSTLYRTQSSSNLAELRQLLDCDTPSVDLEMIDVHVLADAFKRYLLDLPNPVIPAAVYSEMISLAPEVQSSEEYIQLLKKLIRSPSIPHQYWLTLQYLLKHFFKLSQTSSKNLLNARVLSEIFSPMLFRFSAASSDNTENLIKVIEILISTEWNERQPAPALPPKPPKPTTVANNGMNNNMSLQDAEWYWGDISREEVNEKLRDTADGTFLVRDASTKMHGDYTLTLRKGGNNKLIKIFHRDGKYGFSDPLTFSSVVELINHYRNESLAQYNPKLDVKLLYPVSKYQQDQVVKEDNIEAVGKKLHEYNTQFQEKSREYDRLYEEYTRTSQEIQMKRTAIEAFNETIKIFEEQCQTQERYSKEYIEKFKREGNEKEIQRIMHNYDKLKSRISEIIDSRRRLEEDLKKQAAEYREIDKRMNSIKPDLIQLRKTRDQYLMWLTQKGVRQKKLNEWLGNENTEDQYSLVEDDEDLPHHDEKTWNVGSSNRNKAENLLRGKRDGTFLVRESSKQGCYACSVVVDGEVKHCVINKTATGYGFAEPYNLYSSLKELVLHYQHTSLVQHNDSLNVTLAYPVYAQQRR
PI3-kinase p110-delta/p85-alpha, sequence (O00329 whole entry, the tested form may be a part): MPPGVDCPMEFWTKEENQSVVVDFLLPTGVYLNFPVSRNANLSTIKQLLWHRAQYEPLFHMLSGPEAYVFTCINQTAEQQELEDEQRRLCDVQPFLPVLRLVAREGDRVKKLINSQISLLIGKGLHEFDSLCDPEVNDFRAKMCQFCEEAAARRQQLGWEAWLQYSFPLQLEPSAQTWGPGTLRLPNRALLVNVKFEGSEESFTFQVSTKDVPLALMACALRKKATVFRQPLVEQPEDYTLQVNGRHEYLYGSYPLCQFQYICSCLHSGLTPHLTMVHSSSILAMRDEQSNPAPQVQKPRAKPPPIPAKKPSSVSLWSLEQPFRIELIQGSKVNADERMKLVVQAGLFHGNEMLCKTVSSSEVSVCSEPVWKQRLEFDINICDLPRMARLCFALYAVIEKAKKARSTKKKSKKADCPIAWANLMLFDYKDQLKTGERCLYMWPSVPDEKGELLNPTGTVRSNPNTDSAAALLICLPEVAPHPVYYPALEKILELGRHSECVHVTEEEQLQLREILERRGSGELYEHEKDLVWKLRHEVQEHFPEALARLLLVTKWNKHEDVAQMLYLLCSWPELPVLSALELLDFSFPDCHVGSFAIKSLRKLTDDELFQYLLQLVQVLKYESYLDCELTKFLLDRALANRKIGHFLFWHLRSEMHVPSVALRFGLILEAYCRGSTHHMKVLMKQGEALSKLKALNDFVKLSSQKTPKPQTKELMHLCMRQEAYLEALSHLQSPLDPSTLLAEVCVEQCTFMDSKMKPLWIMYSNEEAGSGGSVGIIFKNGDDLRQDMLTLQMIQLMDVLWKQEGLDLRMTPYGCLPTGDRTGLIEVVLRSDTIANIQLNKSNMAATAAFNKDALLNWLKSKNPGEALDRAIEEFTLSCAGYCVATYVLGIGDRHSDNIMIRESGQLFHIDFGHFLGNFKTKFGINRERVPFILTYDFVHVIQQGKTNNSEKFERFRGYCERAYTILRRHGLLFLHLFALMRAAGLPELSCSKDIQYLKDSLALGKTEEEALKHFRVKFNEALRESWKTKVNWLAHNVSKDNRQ

| Compound | IC50 (A-375) | IC50 (MCF7) | IC50 (A549) | IC50 [1] | IC50 (HCT-116) | IC50 [2] | IC50 (HeLa) | IC50 (HepG2) | IC50 [3] |
| --- | --- | --- | --- | --- | --- | --- | --- | --- | --- |
| COc1ncc(-c2ccc3c(c2)N(c2ccccc2)C(=O)CO3)cc1NS(=O)(=O)c1ccc(F)cc1 | 15.2 µM | 8.87 µM | 3.49 µM | 0.0486 µM | 18.8 µM | 0.102 µM | 1.53 µM | 14 µM | 0.08 µM |
| COc1cccc(N2C(=O)COc3ccc(-c4ccc(O)cc4)cc32)c1 | 30.4 µM | > 40 µM | > 40 µM | > 1 µM | 15.3 µM | > 1 µM | > 40 µM | 26.1 µM | > 1 µM |
| O=C1COc2ccc(-c3ccc(O)cc3)cc2N1C1CCCCC1 | > 40 µM | > 40 µM | > 40 µM | > 1 µM | > 40 µM | > 10 µM | > 40 µM | > 40 µM | > 1 µM |
| Cc1ccc(N2C(=O)COc3ccc(-c4cnc5ccccc5c4)cc32)cc1 | > 40 µM | > 40 µM | > 40 µM | > 1 µM | > 40 µM | > 1 µM | > 40 µM | > 40 µM | > 1 µM |
| COc1ncc(-c2ccc3c(c2)N(C2CCCCC2)C(=O)CO3)cc1NS(=O)(=O)c1ccc(F)cc1 | > 40 µM | 30.1 µM | 24.6 µM | 0.873 µM | > 40 µM | > 1 µM | 6.1 µM | > 40 µM | 0.406 µM |
| COc1ccc(N2C(=O)COc3ccc(-c4cccc(NS(=O)(=O)c5ccc(F)cc5)c4)cc32)cc1 | 38.5 µM | 32.4 µM | 38.2 µM | > 1 µM | 28.3 µM | > 1 µM | 13.2 µM | 29.8 µM | > 1 µM |
| O=C1COc2ccc(-c3cnc(Cl)c(NS(=O)(=O)c4ccc(F)cc4)c3)cc2N1c1ccc(Cl)cc1 | 30.6 µM | 32.8 µM | 21.6 µM | 0.0141 µM | 27.9 µM | 0.002 µM | > 40 µM | 33.9 µM | 0.0032 µM |
| O=C1COc2ccc(-c3cnc4ccccc4c3)cc2N1c1ccc(F)cc1 | > 40 µM | > 40 µM | > 40 µM | > 1 µM | > 40 µM | > 1 µM | 38.8 µM | 37.2 µM | > 1 µM |
| O=C1COc2ccc(-c3cnc(Cl)c(NS(=O)(=O)c4ccc(F)cc4)c3)cc2N1c1ccc(F)cc1 | > 40 µM | 32.6 µM | 22.3 µM | 0.0179 µM | 34.2 µM | 0.0051 µM | > 40 µM | > 40 µM | 0.005 µM |
| O=C1COc2ccc(-c3cccc(NS(=O)(=O)c4ccc(F)cc4)c3)cc2N1c1ccc(Cl)cc1 | 32.5 µM | 39.8 µM | 31.6 µM | > 1 µM | 23.9 µM | > 1 µM | 35 µM | 27.8 µM | > 1 µM |
| COc1cccc(N2C(=O)COc3ccc(-c4cnc5ccccc5c4)cc32)c1 | 23.6 µM | > 40 µM | > 40 µM | > 1 µM | 8.24 µM | > 1 µM | 11.3 µM | 2.08 µM | > 1 µM |
| COc1cccc(N2C(=O)COc3ccc(-c4cnc(OC)c(NS(=O)(=O)c5ccc(F)cc5)c4)cc32)c1 | > 40 µM | > 40 µM | 11.2 µM | > 1 µM | > 40 µM | > 1 µM | > 40 µM | > 40 µM | > 1 µM |
| CC(C)N1C(=O)COc2ccc(-c3ccc(O)cc3)cc21 | > 40 µM | > 40 µM | > 40 µM | > 1 µM | > 40 µM | > 1 µM | > 40 µM | > 40 µM | > 1 µM |
| COc1ccc(N2C(=O)COc3ccc(-c4cnc(Cl)c(NS(=O)(=O)c5ccc(F)cc5)c4)cc32)cc1 | 32.7 µM | 36 µM | 30.4 µM | 0.0198 µM | 30.1 µM | 0.00043 µM | 8.32 µM | > 40 µM | 0.0038 µM |
| CC(C)N1C(=O)COc2ccc(-c3cnc4ccccc4c3)cc21 | 39 µM | 22.9 µM | 24.6 µM | > 1 µM | 23.2 µM | > 1 µM | 23.1 µM | > 40 µM | > 1 µM |
| COc1ncc(-c2ccc3c(c2)NC(=O)CO3)cc1NS(=O)(=O)c1ccc(F)cc1 | 26.3 µM | 32.3 µM | 8.07 µM | 0.635 µM | 24.9 µM | 0.5 µM | 7.11 µM | 6.59 µM | 0.3 µM |
| O=C1COc2ccc(-c3cnc4ccccc4c3)cc2N1C1CCCCC1 | > 40 µM | > 40 µM | > 40 µM | > 1 µM | > 40 µM | > 1 µM | 19.7 µM | > 40 µM | > 1 µM |
| CC(C)N1C(=O)COc2ccc(-c3cccc(NS(=O)(=O)c4ccc(F)cc4)c3)cc21 | > 40 µM | 26 µM | 29.4 µM | > 1 µM | 22.6 µM | > 1 µM | 22.7 µM | > 40 µM | > 1 µM |
| COc1ncc(-c2ccc3c(c2)N(c2ccc(F)cc2)C(=O)CO3)cc1NS(=O)(=O)c1ccc(F)cc1 | > 40 µM | > 40 µM | 6.5 µM | 0.0349 µM | > 40 µM | 0.021 µM | 10.5 µM | 36.4 µM | 0.019 µM |
| O=C1COc2ccc(-c3cnc(Cl)c(NS(=O)(=O)c4ccc(F)cc4)c3)cc2N1c1ccccc1 | 36.9 µM | > 40 µM | 14.7 µM | 0.0153 µM | 39.8 µM | 0.019 µM | 10.3 µM | 35.7 µM | 0.015 µM |
| COc1ncc(-c2ccc3c(c2)N(C(C)C)C(=O)CO3)cc1NS(=O)(=O)c1ccc(F)cc1 | 9.95 µM | 16.9 µM | 4.92 µM | 0.0036 µM | 19.2 µM | 0.0453 µM | 2.79 µM | 37.2 µM | 0.018 µM |
| O=C1COc2ccc(-c3cccc(NS(=O)(=O)c4ccc(F)cc4)c3)cc2N1C1CCCCC1 | 23.8 µM | 21.4 µM | 14.5 µM | > 1 µM | 18.3 µM | > 1 µM | 10.8 µM | 35.9 µM | > 1 µM |
| Cc1ccc(N2C(=O)COc3ccc(-c4ccc(O)cc4)cc32)cc1 | > 40 µM | 26.2 µM | > 40 µM | > 1 µM | > 40 µM | > 1 µM | > 40 µM | > 40 µM | > 1 µM |
| COc1ncc(-c2ccc3c(c2)N(c2ccc(C)cc2)C(=O)CO3)cc1NS(=O)(=O)c1ccc(F)cc1 | 12.9 µM | 15.4 µM | 5.87 µM | 0.0138 µM | 22.7 µM | 0.012 µM | 4.65 µM | 28.3 µM | 0.017 µM |
| O=C1COc2ccc(-c3cccc(NS(=O)(=O)c4ccc(F)cc4)c3)cc2N1c1ccccc1 | > 40 µM | > 40 µM | > 40 µM | > 1 µM | > 40 µM | > 1 µM | 17.7 µM | 30.3 µM | > 1 µM |
| O=C1COc2ccc(-c3cnc(Cl)c(NS(=O)(=O)c4ccc(F)cc4)c3)cc2N1C1CCCCC1 | > 40 µM | > 40 µM | 37.9 µM | 0.29 µM | > 40 µM | 0.112 µM | 14.3 µM | > 40 µM | 0.079 µM |
| O=C1COc2ccc(-c3ccc(O)cc3)cc2N1c1ccc(F)cc1 | > 40 µM | 30.2 µM | > 40 µM | > 1 µM | > 40 µM | > 1 µM | > 40 µM | > 40 µM | > 1 µM |
| O=C1COc2ccc(-c3cnc(Cl)c(NS(=O)(=O)c4ccc(F)cc4)c3)cc2N1 | > 40 µM | > 40 µM | > 40 µM | 0.328 µM | > 40 µM | 0.115 µM | 15.6 µM | > 40 µM | 0.092 µM |
| O=C1COc2ccc(-c3cnc4ccccc4c3)cc2N1 | > 40 µM | > 40 µM | > 40 µM | > 1 µM | > 40 µM | > 1 µM | > 40 µM | 26.3 µM | > 1 µM |
| O=C1COc2ccc(-c3ccc(O)cc3)cc2N1c1ccc(Cl)cc1 | > 40 µM | > 40 µM | > 40 µM | > 1 µM | 39.6 µM | > 1 µM | > 40 µM | > 40 µM | > 1 µM |
